Here are results for 18 molecules from publication PMC7497679, “Structure-based design, synthesis, and evaluation of the biological activity of novel phosphoroorganic small molecule IAP antagonists” (Investigational New Drugs, 2020).

Each structure is given as a SMILES string. pEC50, pKi: −log10 of the molar value. Like-named read-outs stand apart in the source and are kept apart here.

This assay addresses T1, XIAP BIR3 domain (Homo sapiens, UniProt P98170).
T1 construct: fluorescent probe 4 and the XIAP BIR3 domain (Sino Biological, Beijing, China) were used for all measurements; purchased Sino Biological, Beijing, China
As to the kind of experiment: Fluorescence polarization inhibition (competition) assay. The format is binding. The conditions noted are these: for inhibition at 50 µM: 0.5 h, antagonist 50 µM, inhibition of protein-probe interaction; for pKi / pEC50 / EC50: XIAP BIR3 50 nM, fluorescent probe 4 2 nM; for pEC50: read-out: EC50; for EC50: read-out: log EC50 (converted). The method, then:
The fluorescence polarization assay was performed at r.t. in Corning 384-well black, polystyrene flat bottom plates (Corning, NY, USA) on a Synergy H4 Hybrid Reader (BioTek, Bad Friedrichshall, Germany). For fluorescence polarization measurements, (milipolarization units, mP) 484/20 nm excitation and 528/20 nm emission filters were selected. Phosphate buffer (pH 7.5) supplemented with γ-globulin (100 µg/mL) and NaN3 (0.02% w/v), fluorescent probe 4 and the XIAP BIR3 domain (Sino Biological, Beijing, China) were used for all measurements. All experiments were performed in duplicate. The obtained fluorescence polarization assay data were analyzed with Prism 5.0 Software (GraphPad Software, San Diego, ca.).
After a 15 min incubation at r.t., fluorescent probe 4 (2 nM) was added. The values were measured 30 min after the moment the probe was added. The assay was performed in phosphate buffer with a final DMSO concentration of 1.4% (v/v). […] In order to evaluate the quality and precision of the performed screening assay, we determined the Z´ factor as described by Zhang et al.. The obtained fluorescence polarization values were used to determine the percent inhibition, which was plotted as a function of the protein concentration. The EC50 and Ki values were calculated with GraphPad software (log(agonist) vs. response (variable slope) model) in combination with the web tool developed by Nikolovska-Coleska et al..
Fluorescence polarization inhibition assay and data analysis for 41m and 42m compounds was performed as described in the Material and Methods section of the manuscript. Briefly, 50 nM solution of the BIR3 XIAP protein in polarization buffer was added into phosphoroorganic compound solution (from 50 μM to 0.0537 nM). After 15 min incubation at r.t. the fluorescent probe 4 (2 nM) was added.
The values were read after 30 minutes from the moment the probe was added. The obtained fluorescence polarization values were used to determine the percentage of inhibition which was plotted as a function of the protein concentration (Supplementary Figure S4).
(1 picture or pasted object on this page, not shown here)
For orientation: Fluorescence polarisation rises when a labelled molecule tumbles more slowly, as on binding a larger partner.

T1 sequence (P98170 252-356 limits assumed): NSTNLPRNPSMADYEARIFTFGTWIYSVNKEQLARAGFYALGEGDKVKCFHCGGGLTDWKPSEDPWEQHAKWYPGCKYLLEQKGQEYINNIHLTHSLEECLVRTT

In the case of `CN[C@@H](C)C(=O)N[C@H](C(=O)N1CCC[C@H]1C(=O)NCP(=O)(c1ccccc1C)c1ccccc1C)C1CCCCC1` [Compound 19, (S)-1-((S)-2-cyclohexyl-2-((S)-2-(methylamino)propanamido)acetyl)-N-((di-o-tolylphosphoryl)methyl)pyrrolidine-2-carboxamide], the inhibition (commonly the relative decrease from the control value, in per cent) at 50 µM stood at 66.2%; the pKi (usually −log10 of the Ki, conventionally taken in molar units) was 4.86; the pEC50 (in general, the EC50 on a negative log10 scale, so that one unit is a factor of ten) is 4.55; the EC50 (commonly the concentration giving half of the maximal effect) is 28.1 µM.
Taken in the same sequence, the figures for `CN[C@@H](C)C(=O)N[C@H](C(=O)N1CCC[C@H]1C(=O)NCP(=O)(c1cc(C)cc(C)c1)c1cc(C)cc(C)c1)C(C)C` [Compound 20, (S)-N-((bis(3,5-dimethylphenyl)phosphoryl)methyl)-1-((S)-3-methyl-2-((S)-2-(methylamino)propanamido)butanoyl)pyrrolidine-2-carboxamide] were 50%, 4.62, 4.32 and 48 µM.
The like results for `CN[C@@H](C)C(=O)N[C@H](C(=O)N1CCC[C@H]1C(=O)NCP(=O)(c1cc(C)cc(C)c1)c1cc(C)cc(C)c1)C1CCCCC1` [Compound 21] were, in that order, 74.4%, 4.95, 4.65 and 22.5 µM.
The like results for `CN[C@@H](C)C(=O)N[C@H](C(=O)N1CCC[C@H]1C(=O)NC(C)P(=O)(c1cc(C)cc(C)c1)c1cc(C)cc(C)c1)C(C)C` (stereo partly drawn) [Compound 22] were, in that order, 59.2%, 4.79, 4.49 and 32.4 µM.
Turning to `CCc1ccc(OP(=O)(Oc2ccc(CC)cc2)C(C)NC(=O)[C@@H]2CCCN2C(=O)[C@@H](NC(=O)[C@H](C)NC)C(C)C)cc1` (stereo partly drawn) [Compound 23], the inhibition at 50 µM stood at 64.1%, the pKi is 4.77, the pEC50 is 4.47 and the EC50 is 34.3 µM.
In the case of `CCc1ccc(OP(=O)(Oc2ccc(CC)cc2)C(C)NC(=O)[C@@H]2CCCN2C(=O)[C@@H](NC(=O)[C@H](C)NC)C2CCCCC2)cc1` (stereo partly drawn) [Compound 24], the inhibition at 50 µM is 74.1%, the pKi is 4.99, the negative logarithm of the EC50 (pEC50) is 4.69 and the EC50 is 20.6 µM.
The like results for `CN[C@@H](C)C(=O)N[C@H](C(=O)N1CCC[C@H]1C(=O)NC(C)P(=O)(Oc1ccc(C(C)C)cc1)Oc1ccc(C(C)C)cc1)C(C)C` (stereo partly drawn) [Compound 25] were, in that order, 81.8%, 4.96, 4.66 and 22 µM.
The like results for `CN[C@@H](C)C(=O)N[C@H](C(=O)N1CCC[C@H]1C(=O)NC(C)P(=O)(Oc1ccc(C(C)C)cc1)Oc1ccc(C(C)C)cc1)C1CCCCC1` (stereo partly drawn) [Compound 26] were, in that order, 85.8%, 5.01, 4.70 and 19.8 µM.
For `CN[C@@H](C)C(=O)N[C@H](C(=O)N1CCC[C@H]1C(=O)NC(C)P(=O)(Oc1ccc(C(C)(C)C)cc1)Oc1ccc(C(C)(C)C)cc1)C(C)C` (stereo partly drawn) [Compound 27, bis(4-(tert-butyl)phenyl) (1-((S)-1-((S)-3-methyl-2-((S)-2-(methylamino)propanamido)butanoyl)pyrrolidine-2-carboxamido)ethyl)phosphonate], the inhibition at 50 µM was determined as 83.3%, the pKi is 4.98, the pEC50 is 4.67 and the EC50 was 21.3 µM.
For `CN[C@@H](C)C(=O)N[C@H](C(=O)N1CCC[C@H]1C(=O)NC(C)P(=O)(Oc1ccc(C(C)(C)C)cc1)Oc1ccc(C(C)(C)C)cc1)C1CCCCC1` (stereo partly drawn) [Compound 28, bis(4-(tert-butyl)phenyl) (1-((S)-1-((S)-2-cyclohexyl-2-((S)-2-(methylamino)propanamido)acetyl)pyrrolidine-2-carboxamido)ethyl)phosphonate], the inhibition at 50 µM is 77.3%, the pKi was 4.88, the pEC50 is 4.57 and the EC50 was 26.7 µM.
Turning to `CN[C@@H](C)C(=O)N[C@H](C(=O)N1CCC[C@H]1C(=O)NC(C)P(=O)(Oc1ccccc1)Oc1ccccc1)C(C)C` (stereo partly drawn) [Compound 29, diphenyl (1-((S)-1-((S)-3-methyl-2-((S)-2-(methylamino)propanamido)butanoyl)pyrrolidine-2-carboxamido)ethyl)phosphonate], the inhibition at 50 µM stood at 62.1%, the pKi is 4.80, the pEC50 was 4.50 and the EC50 was 31.8 µM.
Taken in the same sequence, the figures for `CN[C@@H](C)C(=O)N[C@H](C(=O)N1CCC[C@H]1C(=O)NC(C)P(=O)(Oc1ccccc1)Oc1ccccc1)C1CCCCC1` (stereo partly drawn) [Compound 30, diphenyl (1-((S)-1-((S)-2-cyclohexyl-2-((S)-2-(methylamino)propanamido)acetyl)pyrrolidine-2-carboxamido)ethyl)phosphonate] were 69%, 4.82, 4.52 and 30.3 µM.
The like results for `CCC(NC(=O)[C@@H]1CCCN1C(=O)[C@@H](NC(=O)[C@H](C)NC)C(C)C)P(=O)(Oc1ccccc1)Oc1ccccc1` (stereo partly drawn) [Compound 31, diphenyl (1-((S)-1-((S)-3-methyl-2-((S)-2-(methylamino)propanamido)butanoyl)pyrrolidine-2-carboxamido)propyl)phosphonate] were, in that order, 57%, 4.72, 4.42 and 38 µM.
Taken in the same sequence, the figures for `CCC(NC(=O)[C@@H]1CCCN1C(=O)[C@@H](NC(=O)[C@H](C)NC)C1CCCCC1)P(=O)(Oc1ccccc1)Oc1ccccc1` (stereo partly drawn) [Compound 32, diphenyl (1-((S)-1-((S)-2-cyclohexyl-2-((S)-2-(methylamino)propanamido)acetyl)pyrrolidine-2-carboxamido)propyl)phosphonate] were 71%, 4.92, 4.62 and 24 µM.
As for `CN[C@@H](C)C(=O)N[C@H](C(=O)N1CCC[C@H]1C(=O)NC(C(C)C)P(=O)(Oc1ccccc1)Oc1ccccc1)C(C)C` (stereo partly drawn) [Compound 33, diphenyl (2-methyl-1-((S)-1-((S)-3-methyl-2-((S)-2-(methylamino)propanamido)butanoyl)pyrrolidine-2-carboxamido)propyl)phosphonate], the inhibition at 50 µM worked out at 58.5%, the pKi was 4.76, the pEC50 is 4.46 and the EC50 was 34.9 µM.
The like results for `CN[C@@H](C)C(=O)N[C@H](C(=O)N1CCC[C@H]1C(=O)NC(C(C)C)P(=O)(Oc1ccccc1)Oc1ccccc1)C1CCCCC1` (stereo partly drawn) [Compound 34] were, in that order, 70.5%, 4.93, 4.62 and 23.9 µM.
The like results for `CCC(C)C(NC(=O)[C@@H]1CCCN1C(=O)[C@@H](NC(=O)[C@H](C)NC)C(C)C)P(=O)(Oc1ccccc1)Oc1ccccc1` (stereo partly drawn) [Compound 35] were, in that order, 77.4%, 5.05, 4.75 and 17.8 µM.
Taken in the same sequence, the figures for `CCC(C)C(NC(=O)[C@@H]1CCCN1C(=O)[C@@H](NC(=O)[C@H](C)NC)C1CCCCC1)P(=O)(Oc1ccccc1)Oc1ccccc1` (stereo partly drawn) [Compound 36] were 81.4%, 5.09, 4.79 and 16.3 µM.
